We go through 1 compound from patent US8242160B2, “Inhibitors of ubiquitin E1” (The United States of America, as represented by the …, priority 2005, dated 2012).

Experiment [1] concerns Nedd4. Put plainly: In vitro autoubiquitination of HECT E3 Nedd4. The experiment is classed as biochemical. As for the experimental part:
It was then evaluated whether 4-[4-(5-nitro-furan-2-ylmethylene)-3,5-dioxo-pyrazolidin-1-yl]-benzoic acid methyl acid blocks autoubiquitination of both RING finger E3s (Mdm2) and HECT E3s (Nedd4) in vitro.
5 pmole per experimental point of bacterially expressed GST-Mdm2 (or GST-Nedd) is coupled to glutathione Sepharose (GS) for 30 minutes at room temperature with tumbling, followed by 3× wash with 50 mM Tris pH 7.5. Following this, 20 μl of 1× buffer is added (40 μl 10× reaction buffer*, 40 μl 10× PCK**, 320 μl dH2O). The test compound in DMSO is then added to the desired concentration with an equal volume of DMSO used as a control. Samples are incubated with shaking for 1 hr at 23° C. To carry out the reaction, a pre-made cocktail of Rabbit E1 (Calbiochem #6620700)/UbCH5B/^32P Ub cocktail (1 μl/0.5 μl/1 μl) is added followed by 15 minutes shaking at 30° C. The reaction is terminated by addition of 8 μl 4× reducing SDS-PAGE loading buffer. After dissociating proteins from the beads at 100° C. for 2 minutes, samples are resolved on 6% PAGE followed by exposure of the dried gel to phosphor screen. Note: ^32P Ub is derived from GST-Ub that has been engineered to include a PKA phosphorylation site. This fusion protein is purified on glutathione Sepharose, phosphorylated, following this, the ^32P Ub ubiquitin is cleaved and purified away from the thrombin.

In experiment [2] the test system is p53. Put plainly: p53-driven luciferase reporter assay. The experiment is classed as cell-based. From the text: FIG. 5B depicts the results of reporter assays showing that the p53 induced by 4-[4-(5-nitro-furan-2-ylmethylene)-3,5-dioxo-pyrazolidin-1-yl]-benzoic acid methyl acid is transcriptionally active.
For experiment [3], the system named is TRAF6. Kind of experiment: TNFα-induced TRAF6 ubiquitination, immunoprecipitation and immunoblotting. Conditions: T cell leukemia Jurkat. The class given is cell-based. From the text: To determine whether 4-[4-(5-nitro-furan-2-ylmethylene)-3,5-dioxo-pyrazolidin-1-yl]-benzoic acid methyl acid blocks ubiquitination of TRAF6 in response to TNFα, TRAF6 was immunoprecipitated from the T cell leukemia Jurkat after TNFα treatment, followed by immunoblotting (FIG. 4C).

The target of experiment [4] is T1, His6-E1 (Homo sapiens, UniProt P22314).
T1 sequence (P22314 1-1058): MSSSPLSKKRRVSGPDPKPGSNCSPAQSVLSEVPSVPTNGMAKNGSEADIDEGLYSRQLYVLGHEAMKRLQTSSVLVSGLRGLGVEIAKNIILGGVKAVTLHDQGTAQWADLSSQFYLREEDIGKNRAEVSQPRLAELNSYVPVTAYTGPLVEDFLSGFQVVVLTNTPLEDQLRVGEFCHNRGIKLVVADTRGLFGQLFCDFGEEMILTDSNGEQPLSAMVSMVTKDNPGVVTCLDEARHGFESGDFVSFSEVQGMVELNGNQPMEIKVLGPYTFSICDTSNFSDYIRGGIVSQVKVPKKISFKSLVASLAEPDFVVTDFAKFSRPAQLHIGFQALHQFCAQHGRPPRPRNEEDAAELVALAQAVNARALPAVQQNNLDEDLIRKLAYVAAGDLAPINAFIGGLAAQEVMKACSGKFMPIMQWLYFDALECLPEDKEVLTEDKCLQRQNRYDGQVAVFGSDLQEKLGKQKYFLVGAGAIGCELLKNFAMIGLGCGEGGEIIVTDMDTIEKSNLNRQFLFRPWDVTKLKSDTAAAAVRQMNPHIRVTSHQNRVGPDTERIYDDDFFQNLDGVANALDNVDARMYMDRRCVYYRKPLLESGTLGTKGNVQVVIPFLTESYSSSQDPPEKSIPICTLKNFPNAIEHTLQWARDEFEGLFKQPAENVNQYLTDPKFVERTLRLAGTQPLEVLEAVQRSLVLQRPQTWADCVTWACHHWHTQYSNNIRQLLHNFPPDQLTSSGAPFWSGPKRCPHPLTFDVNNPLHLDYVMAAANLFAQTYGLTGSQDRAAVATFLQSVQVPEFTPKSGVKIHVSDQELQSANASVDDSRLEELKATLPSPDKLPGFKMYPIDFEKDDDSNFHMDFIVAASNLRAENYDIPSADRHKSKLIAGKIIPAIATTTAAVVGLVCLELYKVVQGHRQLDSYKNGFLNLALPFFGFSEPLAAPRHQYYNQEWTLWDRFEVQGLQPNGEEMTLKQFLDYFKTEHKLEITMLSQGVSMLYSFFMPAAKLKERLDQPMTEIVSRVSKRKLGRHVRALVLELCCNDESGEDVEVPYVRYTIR
Put plainly: Bead immobilized His6-E1: wash-out and glutathione competition. The class given is biochemical. On the procedure:
Bead immobilized His6-E1 was treated with E1 inhibitor 4-[4-(5-nitro-furan-2-ylmethylene)-3,5-dioxo-pyrazolidin-1-yl]-benzoic acid methyl acid (E1 41) at a range of concentrations (0-50 μm) as indicated in FIG. 9A. The beads were subjected to wash (+wash) or no wash (−wash) conditions.
The ability of a compound to inhibit E1 activity may come from the ability of the compound to interfere with the formation of thiolester linkages between ubiquitin and E1. Next, the biological activity of E1 41 was tested to examine if it can be inhibited or prevented by treatment with an excess of reduced glutathione. […] Thus, E1 41 can act as a target for nucleophilic attack by active site thiol of E1 (e.g., a central double bond of a compound can serve as Michael-acceptor for the nucleophilic thiol in a Michael-type reaction).

Experiment [5] concerns the target T2, E1 (Homo sapiens, UniProt P22314).
T2 construct: endogenous in cells; host or cells: RPE cells
T2 sequence (P22314 1-1058): T1 sequence (P22314 1-1058)
Kind of experiment: Loading of E1 with ubiquitin in cells, anti-E1 immunoblot. The experiment is classed as cell-based. Particulars: 50 μM, 1 hour. As for the experimental part: RPE cells were treated with the E1 inhibitor of 4-[4-(5-nitro-furan-2-ylmethylene)-3,5-dioxo-pyrazolidin-1-yl]-benzoic acid methyl acid (designated as EI-41, 50 μM), HLI98C (50 μM) or iodoacetamide […] for 1 hour followed by lysis, SDS-PAGE under either non-reducing (FIG. 7A) or reducing (FIG. 7B) conditions and immunoblotting with anti-E1. Results are shown in FIGS. 7A and 7B, where the EI-41 compound is shown to inhibit the loading of EI with ubiquitin.
In general terms: In western blotting, separated proteins are transferred to a membrane and probed.

For experiment [6], the system named is cyclin E. Kind of experiment: Degradation of in vitro translated cyclin E in S-100 cytosolic extract. The experiment is classed as biochemical. The text has this: Cytosolic extracts from cells (S-100) contain all the components for ubiquitination and proteasomal degradation. To further evaluate 4-[4-(5-nitro-furan-2-ylmethylene)-3,5-dioxo-pyrazolidin-1-yl]-benzoic acid methyl acid, we made use of in vitro translated cyclin E, which is degraded in S-100 in a time-dependent manner (FIG. 3, upper panel, lanes 1-4).

Experiment [7] has as its system U2O cells. Put plainly: Proteasome inhibitor-induced accumulation of ubiquitylated proteins. The class given is cell-based. Conditions: 50 μM with ALLN 50 μM, four hours.

Structures are written as SMILES.

`COC(=O)c1ccc(N2NC(=O)/C(=C/c3ccc([N+](=O)[O-])o3)C2=O)cc1` [E1-41, 4-[4-(5-nitro-furan-2-ylmethylene)-3,5-dioxo-pyrazolidin-1-yl]-benzoic acid methyl acid]: in experiment [1], the “autoubiquitination of Nedd4” value was “inhibits the autoubiquitination of Nedd4”. In addition, the “activation of p53-driven luciferase reporter” value in experiment [2] is “activated a p53-driven luciferase reporter to a level comparable to adriamycin”. Besides, the “TNFα-induced ubiquitination of TRAF6” value in experiment [3] is “effectively inhibited”. Moreover, the “removal of compound from E1 by washing” value in experiment [4] (0-50 μm, wash versus no wash) is recorded as “cannot be washed away”. For the same compound, the “effect of reduced glutathione on the inhibitory action on E1” value in experiment [4] (50 μM compound, GSH 0.1-10 mM) is “can be prevented by the addition of reduced glutathione (GSH) in a dose-dependent manner”. Besides, the “E1-Ub thiol-ester formation in RPE cells” value in experiment [5] is “inhibit E1-Ub thiol-ester formation”. Also, in experiment [6] (no exogenous E1), the “cyclin E degradation in S-100” value is on record as “block cyclin E degradation”. Moreover, the “cyclin E degradation in S-100 after addition of purified exogenous E1” value in experiment [6] (purified exogenous E1 added to the reaction mixture) is “inhibition of cyclin E degradation was prevented”. Moreover, the “accumulation of ubiquitylated proteins in proteasome inhibitor-treated cells” value in experiment [7] is recorded as “inhibit the accumulation of ubiquiylated proteins”.
